According to patent US20160038448A1, “THE INHIBITION OF THE TOXIC EFFECTS OF ISLET AMYLOID FORMATION BY FLURBIPROFEN AND FLURBIPROFEN DERIVATIVES” (The Research Foundation for the State University of New York, priority 2013, published 2016):
Substitutions are numbered along the chain they refer to. Entries after “also recorded” stand apart in the source; their conditions may differ.

Assays:
[1] = target: T1, human IAPP (Homo sapiens, UniProt P10997); assay: Fluorescence detected thioflavin-T assay of the time course of amyloid formation; assay type: biochemical
T1 construct: Mature, fully processed, Amylin is 37 residues in length, contains a disulfide bond between residues 2 and 7; made in house; host or cells: chemical solid-phase peptide synthesis (Fmoc), no expression host
T1 sequence (P10997 34-70 limits assumed): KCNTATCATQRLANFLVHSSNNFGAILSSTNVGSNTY
Procedure: Peptides were first dissolved in 100% hexafluoroisopropanol (HFIP) at a concentration 1.6 mM and then filtered to remove any preformed amyloid aggregates. For thioflavin-T fluorescence assays, aliquots were lyophilized and redissolved in pH 7.4, 20 mM Tris-HCl buffer at the desired concentration. Aspirin and Ketoprofen were prepared in 100% dimethyl sulfoxide (DMSO).
Solutions were prepared by adding pH 7.4, 20 mM Tris buffer and thioflavin-T to lyophilized dry peptides for a final peptide concentration of […]. For the studies of Aspirin and Ketoprofen, 0.25% DMSO was present in the solution. Measurements were made at 25° C. using a Beckman Coulter DTX880 plate reader without stirring. An excitation filter of 430 nm and an emission filter of 485 nm were used. To test disaggregate activity of Aspirin, peptide was first incubated in low-binding 96-wells plate and monitored by plate reader to ensure the formation of amyloid fibrils.
A mixture of flurbiprofen (1-20 parts) and human IAPP (1 part) was monitored by fluorescence detected thioflavin-T assays. The assays monitored the time course of amyloid formation (amount vs time) in the presence and absence of flurbiprofen.
A mixture of OH-flurbiprofen and human IAPP were monitored by fluorescence detected thioflavin-T assays. Three different concentrations (1:1 ratio, 1:10 ratio and 1:20 ratio of IAPP to OH-flurbiprofen) were tested against human IAPP without any added OH-flurbiprofen. The assays monitored the time course of amyloid formation (amount vs time) in the presence and absence of a flurbiprofen derivative.
Three different mixtures of NSAIDs (20 parts) and human IAPP (1 parts) were compared to each other and human IAPP alone by fluorescence detected thioflavin-T assays. The assays monitored the time course of amyloid formation (amount vs time) in the presence and absence of aspirin, naproxen and flurbiprofen.

[2] = system: rat INS-1 beta-cells; assay: AlamarBlue cell viability of beta-cells given aliquots of the IAPP amyloid time course; assay type: cell-based; conditions: for presence and toxic effects of intermediates of amyloid formation: human IAPP with compound
Procedure: FIG. 5. […] (A) A thioflavin-T monitored time course of amyloid formation in the presence and absence of flurbiprofen. […] 20 mM Tris-HCl buffer with 0.25% DMSO was used as the control.
The presence of toxic intermediates is reduced when amyloid formation is accelerated by use of flurbiprofen or a flurbiprofen derivative. A thioflavin-T monitored time course of amyloid formation by human IAPP was conducted in the presence and absence of flurbiprofen. Aliquots were removed at various time points and applied to rat INS-1 beta-cells; at thirty minutes, at 12 hours, at 48 hours. Cell viability as judged by AlamarBlue assays. 20 mM Tris-HCl buffer with 0.25% DMSO was used as the control.

[3] = target: T1, human IAPP; assay: One and two dimensional IR spectroscopy of fibers formed with flurbiprofen; conditions: IAPP:flurbiprofen 1:20; 0.5 mm human IAPP and 10 mM flurbiprofen
Procedure: One and two dimensional infrared (IR) spectroscopy was used to confirm the presence of beta-sheet structure. Amyloid is rich in beta-sheet structure. IR spectra were recorded of a mixture of […] human IAPP and 10 mM flurbiprofen.

[4] = target: T1, human IAPP; assay: Seeding experiments monitored by thioflavin-T; assay type: biochemical; conditions: 10% seeds by mass from 1:20 IAPP:flurbiprofen mixture
Procedure: Seeding experiments were conducted using the products of the experiment conducted with the mixture of flurbiprofen (20 parts) and human IAPP. Seeding refers to the addition of a small […] of pre-formed amyloid fibers to an initially unaggerated solution of polypeptide. Addition of the amyloid fibers leads to a by passing of the lag phase. […] 10% seeds, by mass, were added to unaggerated human IAPP and amyloid formation monitored by fluorescence detected thioflavin-T assays.

[5] = NMR spectra and pulse field gradient NMR diffusion (aggregation of the compound); assay type: physicochemical
Procedure: Flurbiprofen was dissolved at 32 micro molar and at 640 micromolar and Nuclear Magnetic Resonance (NMR) spectra were recorded.
A sample of 640 micromolar Flurbiprofen was prepared and pulse field gradient NMR experiments were conducted to determine the diffusion coefficient of the compound. The diffusion coefficient is directly related to the hydrodynamic radius of the compound. The NMR intensity decay curve was monitored for the methyl group NMR signal. The best fit to the data yields a hydrodynamic radius of 3.9 Å.

[6] = target: T2, I26P human IAPP point mutant (Homo sapiens, UniProt P10997, I59P); assay: Thioflavin-T assay and TEM with non-amyloidogenic point mutant; assay type: biochemical; conditions: 20 fold excess of Flurbiprofen; vesicles as control experiment
T2 construct: Mature, fully processed, Amylin is 37 residues in length, contains a disulfide bond between residues 2 and 7
T2 sequence (P10997 34-70 I59P): T1 sequence (P10997 34-70 limits assumed) with I26P
Procedure: The […] human IAPP point mutant was incubated with Flurbiprofen (20 fold excess of Flurbiprofen) and the mixture was monitored by fluorescence detected thioflavin-T assays. […] Transmission electron microscopy was used to confirm the absence of amyloid. The […] human IAPP point mutant was incubated with 100 nm vesicles composed of 100% anionic lipids as a control experiment. The mixture was monitored by fluorescence detected thioflavin-T assays. […] Transmission electron microscopy was used to confirm the presence of amyloid.

[7] = target: T3, A-beta(1-40) (Homo sapiens, UniProt P05067); assay: Thioflavin-T assay of A-beta(1-40) amyloid formation; assay type: biochemical; conditions: flurbiprofen 20 parts, A-beta(1-40) 1 part
T3 construct: A mixture of flurbiprofen (20 parts) and A-beta(1-40) (1 part)
From the text: A mixture of flurbiprofen (20 parts) and A-beta(1-40) (1 part) was monitored by fluorescence detected thioflavin-T assays. The assays monitored the time course of amyloid formation (amount vs time) in the presence and absence of flurbiprofen.

[8] = target: T4, 3XL-IAPP mutant (F15L, F23L, Y37L human IAPP) (Homo sapiens, UniProt P10997, F48L/F56L/Y70L); assay: Thioflavin-T assay of mutant human IAPP amyloid formation (3XL); assay type: biochemical; conditions: 1:20 mixture of mutant with flurbiprofen
T4 construct: Mature, fully processed, Amylin is 37 residues in length, contains a disulfide bond between residues 2 and 7
T4 sequence (P10997 34-70 F48L/F56L/Y70L): T1 sequence (P10997 34-70 limits assumed) with F15L, F23L, Y37L
From the text: (§1) A mixture of flurbiprofen (20 parts) and human IAPP (1 part) was monitored by fluorescence detected thioflavin-T assays. The assays monitored the time course of amyloid formation (amount vs time) in the presence and absence of flurbiprofen. The effect of flurbiprofen in wild-type (WT) human IAPP, and in two mutants of human IAPP was monitored. In one mutant, all of the aromatic amino acids in human IAPP were replaced by […] human IAPP was examined. A second mutant in which […] human IAPP) was also tested.

[9] = system: 3XL-IAPP mutant (F15L, F23L, Y37L human IAPP); assay: as above; assay type: biochemical; conditions: WT human IAPP and mutant IAPP compared
From the text: as §1

[10] = target: T5, H18Q human IAPP (Homo sapiens, UniProt P10997, H51Q); assay: Thioflavin-T assay of mutant human IAPP amyloid formation (H18Q); assay type: biochemical; conditions: 1:20 mixture of mutant with flurbiprofen
T5 construct: Mature, fully processed, Amylin is 37 residues in length, contains a disulfide bond between residues 2 and 7
T5 sequence (P10997 34-70 H51Q): T1 sequence (P10997 34-70 limits assumed) with H18Q
From the text: as §1

[11] = system: human IAPP transgenic mouse islets; assay: Amyloid formation induced in human IAPP transgenic mouse islets; assay type: cell-based; conditions: example in present tense
From the text: Amyloid formation is induced in human IAPP transgenic mouse islets in the presence and absence of flurbiprofen or a flurbiprofen derivative.

[12] = system: human islet cell transplants; assay: Mice transplanted with human islet cell transplants; assay type: in vivo, mouse; conditions: example in present tense
Procedure: Mice transplanted with human islet cell transplants are treated with flurbiprofen or a flurbiprofen derivative.

[13] = target: T6, human IAPP (amylin) (Homo sapiens, UniProt P10997); assay: Transmission electron microscopy of amyloid fibrils; assay type: biochemical; conditions: 20-fold excess of NSAID over human IAPP, end of kinetic experiment
T6 construct: Mature, fully processed, Amylin is 37 residues in length, contains a disulfide bond between residues 2 and 7; made in house; host or cells: chemical solid-phase peptide synthesis (Fmoc), no expression host
T6 sequence (P10997 34-70 limits assumed): T1 sequence (P10997 34-70 limits assumed)
Procedure: TEM was performed at the Life Science Microscopy Center at Stony Brook University. Aliquots were removed from the same solutions that were used for the fluorescence measurements. 5 μL of peptide solution was placed on carbon-coated Formvar 300 mesh copper grid for one minute and then negatively stained with saturated uranyl acetate for another one minute.

[14] = target: T7, human amylin (Homo sapiens, UniProt P10997); assay: Right angle light scattering assay (RALS) without thioflavin-T; assay type: biochemical; conditions: 20-fold excess of aspirin (320 μM), amylin 16 μM, no thioflavin-T
T7 construct: Mature, fully processed, Amylin is 37 residues in length, contains a disulfide bond between residues 2 and 7; made in house; host or cells: chemical solid-phase peptide synthesis (Fmoc), no expression host
T7 sequence (P10997 34-70 limits assumed): T1 sequence (P10997 34-70 limits assumed)
Procedure: Solutions were prepared by adding pH 7.4, 20 mM Tris buffer without thioflavin-T to lyophilized dry peptides for a final peptide concentration of 16 […] used an excitation and emission wavelength of 500 nm.

[15] = target: T8, pre-formed human amylin amyloid fibrils (Homo sapiens, UniProt P10997); assay: Disaggregation of pre-formed amylin amyloid fibrils (thioflavin-T and TEM); assay type: biochemical; conditions: 20-fold excess added after amyloid formation was complete, up to 48 hours
T8 construct: Mature, fully processed, Amylin is 37 residues in length, contains a disulfide bond between residues 2 and 7; made in house; host or cells: chemical solid-phase peptide synthesis (Fmoc), no expression host
T8 sequence (P10997 34-70 limits assumed): T1 sequence (P10997 34-70 limits assumed)
Procedure: Solutions were prepared by adding pH 7.4, 20 mM Tris buffer and thioflavin-T to lyophilized dry peptides for a final peptide concentration of 16 M. For the studies of Aspirin and Ketoprofen, 0.25% DMSO was present in the solution. Measurements were made at 25° C. using a Beckman Coulter DTX880 plate reader without stirring. An excitation filter of 430 nm and an emission filter of 485 nm were used.

T3 sequence (P05067 672-711): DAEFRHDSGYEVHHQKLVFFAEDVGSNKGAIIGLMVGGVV

CC(C(=O)O)c1ccc(-c2ccccc2)c(F)c1 (racemic) [Flurbiprofen, (RS)-2-(2-fluorobiphenyl-4-yl)propanoic acid]
effect on human IAPP amyloid formation (thioflavin-T time course) ([1]; 1:1 ratio of human IAPP and compound): showed acceleration of amyloid formation
effect on human IAPP amyloid formation (thioflavin-T time course) ([1]; 20 to 1 ratio of compound to human IAPP): strongest effect of accelerating human IAPP amyloid formation
effect on human IAPP amyloid formation (thioflavin-T time course) ([1]; 20 to 1 ratio of compound to human IAPP, listed as Flurbiprofen racemate): accelerated islet amyloid formation
effect on human IAPP amyloid formation (thioflavin-T time course) ([1]; 20 to 1 ratio of compound to human IAPP, listed as racemic mixture): equally effective
effect on human IAPP amyloid formation (thioflavin-T time course) ([1]; IAPP:compound ratios 1:1 to 1:20, pH 7.4, 20 mM Tris, 25° C.): accelerated islet amyloid formation
protection of β-cells against IAPP induced toxicity (cell viability, AlamarBlue) ([2]; aliquots at thirty minutes, 12 hours, 48 hours of IAPP time course with and without flurbiprofen): protects β-cells against IAPP induced toxicity
presence and toxic effects of intermediates of amyloid formation [2]: reduced the presence and toxic effects of intermediates of amyloid formation in a dose dependent fashion
presence and toxic effects of intermediates of amyloid formation ([2]; listed as Flurbiprofen racemate): reduced the presence and toxic effects of intermediates of amyloid formation
presence and toxic effects of intermediates of amyloid formation ([2]; listed as flurbiprofen): reduced
β-structure of flurbiprofen induced aggregates (IR) [3]: rich in β-structure
seeding of human IAPP amyloid formation by fibers formed with flurbiprofen [4]: extremely effective at seeding amyloid formation by human IAPP
aggregation state of the compound (NMR peak positions and line widths) ([5]; 32 and 640 micro molar samples): independent of the concentration of the compound; also recorded: did not aggregate; also recorded: monomeric
hydrodynamic radius (PFG-NMR) ([5]; 640 micromolar, methyl resonance decay curve): 3.9 Å
induction of amyloid formation by I26P-IAPP (thioflavin-T, TEM) [6]: No increase in fluorescence is detected; also recorded: did not induced amyloid formation; also recorded: does not induce the non-amyloidogenic point mutant I26P-IAPP to form amyloid fibers
effect on A-beta(1-40) amyloid formation kinetics [7]: did not influence the kinetics of amyloid formation by A-beta(1-40); also recorded: does not accelerate amyloid formation by the Aβ1-40 peptide
effect on amyloid formation by 3XL-IAPP mutant [8]: had the same effect; also recorded: accelerates amyloid formation
acceleration of amyloid formation and reduction of toxic effects of intermediates, WT human IAPP versus mutant IAPP [9]: about equally
effect on amyloid formation by H18Q-IAPP mutant [10]: accelerates amyloid formation
effect on amyloid formation by H18Q-IAPP mutant ([10]; listed as flurbiprofen): effected the mutant the same way as it did the wild type
toxic effects of amyloid formation in islets [11]: reduces the toxic effects of amyloid formation
survival of islet cell transplants [12]: enhances the survival of the islet cell transplants

CC(=O)Oc1ccccc1C(=O)O [Aspirin]
inhibition of amyloid formation by human IAPP (amylin) ([1]; 20 to 1 ratio of NSAID to human IAPP, pH 7.4, 25° C.): do not inhibit amylin amyloid formation; also recorded: no inhibition of amyloid; also recorded: does not inhibit amyloid formation by human amylin
final thioflavin-T intensity ([1]; amylin 16 μM, aspirin up to 20-fold excess, pH 7.4, 25° C., 0.25% DMSO): no detectable effect on the final thioflavin-T intensity
rate of amyloid formation as judged by T50 ([1]; amylin 16 μM, aspirin up to a 20-fold excess, pH 7.4, 25° C.): no detectable effect on the rate of amyloid formation
amyloid fibrils by TEM in presence of NSAID [13]: no changes in amyloid formation
amyloid fibrils by TEM in presence of NSAID ([13]; listed as aspirin): Extensive matts of fibrils; also recorded: does not inhibit IAPP amyloid formation
aggregation curves by right angle light scattering [14]: does not inhibit amyloid formation by human amylin
disaggregation of pre-formed amylin amyloid fibrils [15]: unable to disassemble pre-formed amylin amyloid; also recorded: does not disaggregate pre-formed human amylin amyloid fibrils
disaggregation of pre-formed amylin amyloid fibrils ([15]; listed as aspirin): does not disaggregate amylin amyloid; also recorded: no effect on the thioflavine-T signal
